Data reported in patent US20080015251A1, “Means and method for treating lipotoxicity and other metabolically related phenomena” (Yissum Research Development Co., of The Hebrew University …, priority 2006, published 2008).
Entries after “also recorded” stand apart in the source; their conditions may differ. Marks after values point to notes of the source that are not given here.

Assays:
[1] = system: rat isolated hepatocytes; experiment: Nitrite in culture media (Griess reaction); assay type: cell-based; conditions: for effect on LE inhibition of nitrite levels: 0.1% LE, NAC 3 mmol/L, ascorbate 3 mmol/L, resveratrol 600 μmol/L
Procedure: (§1) Rotenone, S nitroso-N-acetyl-penicillamine (SNAP), buthionine sulfoximine (BSO), anti oxidants, or TNF-α were added to the culture medium in specific experiments. At the end of the experiment, the medium was collected and the cells were harvested for further assays.
Nitrite in culture media was measured by the Griess reaction (21). The values obtained were compared with standards of sodium nitrite dissolved in the cell culture media.

[2] = system: J774.2 macrophages; experiment: Cell viability by propidium iodide exclusion (membrane integrity), flow cytometry; assay type: cell-based, Murine; conditions: for protection against TG-induced lipotoxicity (rate of cell death): AA 0.5 mM, resv 0.2 mM, querc 0.2 mM, lyc 10 AM, carot 10 AM, toc 0.2 mM, LA 0.25 mM, Se 1 AM (FIG. 8A)
Procedure: Murine J774.2 macrophages were cultured in RPMI medium enriched with 10% fetal calf serum, 1% glutamine, and 1% penicillin-streptomycin. […] Prior to experimental procedures, macrophages were seeded on 6-well plates at a concentration of 50,000 cells/ml.
The physiological range of TG in plasma is up to 1.5 mg/ml. […] Other agents, such as antioxidants or cycloheximide (CH), were added as specified in the relevant figure legends.
Cell membrane integrity was detected as previously described. Briefly, cells were stained with 2 Ag/ml propidium iodide (PI) and measured by flow cytometry, (FACS Calibur, Becton Dickinson, Calif.) at the following fluorescence setting: excitation at 488 nm and emission at 575 nm. Data were collected from 10,000 cells.

[3] = system: caspase-3; experiment: Caspase-3 (DEVDase) activity, Ac-DEVD-AMC substrate; assay type: cell-based, Murine; conditions: pretreatment for 24 h with CH (FIG. 6)
Procedure: For analysis of caspase activity, cells were incubated for 2 h in ice-cold PBS containing 0.5% Triton X-100 and 5 mM dithiothreitol (DTT). The suspension of permeabilized cells was agitated slightly and centrifuged at 14,000 g. The clear supernatant was tested for caspase-3 activity as previously described, using the caspase-3 substrate Ac-DEVD-AMC (Calbiochem, Darmstadt, Germany). Incubation was conducted in 200 Al of reaction mixture containing approximatelyl mg sample protein, in the dark, at 308 C for 4 h (linear phase of the reaction). Caspase-3 activity was expressed as arbitrary fluorescence units (AU) per mg. protein.

[4] = system: J774.2 macrophages; experiment: Intracellular ROS, H2DCF-DA fluorescent probe, FACS; assay type: cell-based, Murine; conditions: for ROS production in TG-treated cells: 0.1% LE 24 h, rotenone 40 AM added 5 min before probe, FCCP 15 min (FIG. 2B)
Procedure: Murine J774.2 macrophages were cultured in RPMI medium enriched with 10% fetal calf serum, 1% glutamine, and 1% penicillin-streptomycin. Cells were maintained in an incubator with temperature (378C) and CO2 (5%) control. Prior to experimental procedures, macrophages were seeded on 6-well plates at a concentration of 50,000 cells/ml.
LE was added to the cell culture at a concentration of 0.1% (w/v) TG (1 mg lipids/ml). The physiological range of TG in plasma is up to 1.5 mg/ml. The cells were incubated with the LE for 12, 24, or 48 h, and then washed twice with phosphate-buffered saline (PBS), and intracellular ROS and cell viability were measured. Other agents, such as antioxidants or cycloheximide (CH), were added as specified in the relevant figure legends.
Intracellular ROS were detected using a H2DCF-DA fluorescent probe. The cells were incubated with 25 AMH2DCF-DA for 30 min at room temperature. The fluorescence was measured in a FACS, with excitation at 488 nm and emission at 530 nm. Data were collected from 10,000 cells.

[5] = system: rat isolated hepatocytes; experiment: Intracellular ROS, DCF fluorescence, flow cytometer; assay type: cell-based
Procedure: as §1, with “Isolated hepatocytes were seeded at 2 […]10^9 cells/L; after 4 h, the culture medium was replaced and cells were incubated for 48 h with 0.01-0.1% LE. Rotenone,” for “Rotenone,”
Cell membrane integrity (15), TG accumulation (22), and intracellular ROS levels (23, 24) were detected by flow cytometer (FACScalibur BD). Hepatocytes were stained with 2 mg/L DNA-interchelating dye propidium iodide, which is excluded by viable cells; with 1 mg/L Nile red, which accumulates in intracellular lipid droplets; or with […] dichlorodihydrofluorescein diacetate (H2DCF-DA), a probe that has high reactivity to hydrogen peroxide, lipid hydroperoxide, and hydroxyl radicals and low reactivity to superoxide anions (23,24). Fluorescence settings were as follows: excitation at 488 nm and emission at 575 nm for propidium iodide and Nile red and 488 nm and recorded at 530 nm for H2DCF-DA. Data were collected from 10,000 cells.

[6] = system: rat isolated hepatocytes; experiment: Reduced glutathione (GSH) by HPLC; assay type: cell-based
Procedure: GSH was measured using HPLC (15). […] Detection was made by an electrochemical detector. The results were adjusted to protein levels of the samples.

[7] = system: eNOS; experiment: eNOS mRNA level by RT-PCR; assay type: cell-based, rat; conditions: 0.1% LE, NAC 3 mmol/L, 48 h
Procedure: (§2) Total RNA was prepared using TriReagent. Analyses of mRNA levels of iNOS, eNOS, and gylceraldehyde-3-phosphate dehydrogenase (GAPDH) were performed using RT-PCR. The synthesis of cDNA was carried out using a Reverse-it (ABgene) first-strand synthesis kit. The reaction was conducted at 40-55° C. for 50 min. Finally, the reaction was terminated by incubation at 70° C. for 15 min. PCR amplification was performed in the Biometra T personal cycler instrument (Biometra). Cycles were performed at 94° C. for 30 s followed by 57° C. for 30 s and 72° C. for 30 s. cDNA was incubating with ReddyMix and gene-specific PCR primers, designed using Primer 3 software (Whitehead Institute for Biomedical Research).
(§3) The primers were synthesized by MBC: eNOS, forward primer, 5′-[…]-3′, and reverse primer, 5′-[…]-3′; INOS, forward primer, 5′[…]-3′, and reverse primer, 5′-[…]-3′. As a loading control, RNA was hybridized with a probe of the housekeeping gene, GAPDH, forward primer, 5′-[…]-3′, and reverse primer, 5′-[…]-3′.
(§4) PCR products were electrophoresed on […] gel containing 5 µL ethidium bromide, and the gel image was quantified using Doc-it gel image analysis program (UVP). The number of cycles for all the genes was selected within the linear part of a standard curve.

[8] = system: eNOS; experiment: eNOS protein expression, Western blot; assay type: cell-based, rat; conditions: 0.1% LE, NAC 3 mmol/L, 48 h, data not shown
Procedure: (§5) Cells were scraped and lysed in 750 μΛ of lysis buffer (20 mmol/L Tris, pH 7.8; 0.1% Nonidet P-40; 100 mmol/L NaCl; 50 mmol/L NaF; 10% glycerol, 1 mmol/L sodium orthovanadate). Lysates were centrifuged at 8500×g for 10 min. The supernatant was collected and used for the analysis of eNOS and iNOS.
(§6) Protein concentration was determined by the Bradford method (20) using bovine serum albumin as a standard. Samples were boiled for 5 min with SDS sample buffer; 60 μg of protein per sample was loaded onto a 10% SDS-polyacrylamide gel. Electroblots were blocked in Tris buffer NaCl-Tween (TBST) containing 5% skim milk powder at room temperature. Western blot analysis with a specific antibody against iNOS (Biomol), eNOS, p65, and p-c-Jun antibodies (Santa Cruz Biotechnology) was carried out. The antibodies were diluted in TBST buffer+5% skim milk and left overnight at 4° C. After a TBST washing procedure, the blots were incubated with horseradish-peroxidase labeled anti-rabbit antibody (Pierce) for 1 h at room temperature. The immune reaction was detected by enhanced chemiluminescence. Bands were quantified by scanning densitometry and expressed as arbitrary units.

[9] = system: iNOS; experiment: iNOS protein expression, Western blot; assay type: cell-based, rat; conditions: 0.1% LE, NAC 3 mmol/L, 48 h
Procedure: as §5, §6

[10] = system: iNOS; experiment: iNOS mRNA level by RT-PCR; assay type: cell-based, rat; conditions: 0.1% LE, NAC 3 mmol/L, 48 h
Procedure: as §2, §3, §4

[11] = with or without 0.1% LE and rotenone, 48 h (Table 5)
[12] = with or without 0.1% LE and BSO, 48 h (Table 6)

TNF-α
Nitrite ([1]; TNF-α (100 mU) 3 h, with or without 48 h preincubation with 0.1% LE): 2.1 ± 0.1 μmol/106 cells
Nitrite ([1]; TNF-α (100 mU) 6 h, with or without 48 h preincubation with 0.1% LE): 2.1 ± 0.2 μmol/106 cells
Nitrite ([1]; TNF-α (100 mU) 9 h, with or without 48 h preincubation with 0.1% LE): 4.3 ± 0.2 μmol/106 cells
Nitrite ([1]; TNF-α (100 mU) 12 h, with or without 48 h preincubation with 0.1% LE): 6.5 ± 0.2 μmol/106 cells

C[C@@H]1C[C@@H]([C@H](O)CC2CC(=O)NC(=O)C2)C(=O)[C@@H](C)C1 [CH, cycloheximide]
effect of protein-synthesis inhibition on TG cell-death effect ([2]; CH 0.1 AM then TG, 48 h (FIG. 6B)): does not prevent the cell-death effect of TG
caspase-3 activity [3]: increased caspase-3 activity
ROS production, CH treatment alone ([4]; CH 0.1 AM (FIG. 6)): decreased ROS production

CC(C)(C)OO [TBH, tert-butyl hydroperoxide]
cell viability after 48 h of exposure ([2]; TBH 12 AM or LE 0.1%, 48 h (FIG. 5)): No loss in viability

O=c1c(O)c(-c2ccc(O)c(O)c2)oc2cc(O)cc(O)c12 [quercetin]
protection against TG-induced lipotoxicity (rate of cell death) ([2]; 0.1% LE): did not have any protective effect or even enhanced the rate of cell death

CC1=C(/C=C/C(C)=C/C=C/C(C)=C/C=C/C=C(C)/C=C/C=C(C)/C=C/C2=C(C)CCCC2(C)C)C(C)(C)CCC1 [h-carotene]
protection against TG-induced lipotoxicity (rate of cell death) ([2]; 0.1% LE): did not have any protective effect or even enhanced the rate of cell death

N#CC(C#N)=NNc1ccc(OC(F)(F)F)cc1 [FCCP]
ROS production in TG-treated cells [4]: decreased cellular ROS production but not as effectively as rotenone

C=C(C)[C@H]1Cc2c(ccc3c2O[C@@H]2COc4cc(OC)c(OC)cc4[C@@H]2C3=O)O1 [rotenone]
Nitrite [1, 11]: 2.0 ± 0.2^c μmol/106 cells
intracellular ROS levels ([5]; incubation with rotenone): increased intracellular ROS levels
ROS (DCF fluorescence) [5, 11]: 530 ± 44^a AU
ROS production in TG-treated cells [4]: significantly decreased ROS production

CCCCS(=N)(=O)CCC(N)C(=O)O (stereo not drawn) [BSO, buthionine sulfoximine]
nitrite levels ([1]; cells treated with BSO): decreased
Nitrite [1, 12]: 2.3 ± 0.3^c μmol/106 cells
GSH ([6]; cells treated with BSO): decreased
GSH [6, 12]: 2.2 ± 0.4 nmol/mg protein

O=C(O)CCCCC1CCSS1 (racemic) [racemic lipoic acid, lipoic acid]
protection against TG-induced lipotoxicity (rate of cell death) ([2]; 0.1% LE): did not have any protective effect or even enhanced the rate of cell death

Cc1c(C)c2c(c(C)c1O)CC[C@@](C)(CCC[C@H](C)CCC[C@H](C)CCCC(C)C)O2 [atocopherol, a-tocopherol]
protection against TG-induced lipotoxicity (rate of cell death) ([2]; 0.1% LE): did not have any protective effect or even enhanced the rate of cell death

CC(C)=CCC/C(C)=C/C=C/C(C)=C/C=C/C(C)=C/C=C/C=C(C)/C=C/C=C(C)/C=C/C=C(\C)CCC=C(C)C [lycopene]
protection against TG-induced lipotoxicity (rate of cell death) ([2]; 0.1% LE): did not have any protective effect or even enhanced the rate of cell death

CC(=O)N[C@H](C(=O)O)C(C)(C)SN=O [SNAP, S-nitroso-N-acetyl-penicillamine]
effect on ROS levels ([5]; SNAP in culture medium 48 h, presence or absence of LE): had no effect on ROS levels
ROS (DCF fluorescence) ([5]; with or without 0.1% LE and SNAP, 48 h (Table 4)): SNAP 133 AU

CC(=O)N[C@@H](CS)C(=O)O [NAC, N-acetyl-L-cysteine]
effect on LE inhibition of nitrite levels [1]: increased nitrite levels compared with controls; also recorded: Inhibition of nitrite production was abolished
effect on LE-induced reduction of eNOS mRNA transcription [7]: attenuate the LE-induced reduction
protection against TG-induced cell death ([2]; 0.1% LE, NAC 0.5 mM (FIG. 7B)): protected the cells against TG-induced cell death
effect on LE-induced reduction of eNOS protein levels [8]: attenuate the LE-induced reduction
effect on LE-induced reduction of iNOS protein levels [9]: attenuate the LE-induced reduction
effect on LE-induced reduction of iNOS mRNA transcription [10]: attenuate the LE-induced reduction
TG induced ROS production ([4]; 0.1% LE, NAC 0.5 mM (FIG. 7A)): suppressed

Oc1ccc(C=Cc2cc(O)cc(O)c2)cc1 [resveratrol]
effect on LE inhibition of nitrite levels [1]: partially prevented the reduction in nitrite synthesis
protection against TG-induced lipotoxicity (rate of cell death) ([2]; 0.1% LE): significantly decreased the rate of cell death
